Reference: patent US20100184770A1, “COMPOUNDS” (Glaxo Group Limited, priority 2006, published 2010)

Legend:
[1] = molecular target: T1, histamine H3 receptor (Homo sapiens, UniProt Q9Y5N1); experiment: Histamine H3 functional antagonist assay ([35S]-GTPγS, membranes); type: biochemical; details: histamine at EC80, read-out: average pKi (pKb) at H3 (converted)
T1 construct: expressed in transfected cells; host or cells: CHO K1 cells with pSwitch/pGene (GeneSwitch), clone 3H3, mifepristone-induced; membranes
Description: The histamine H3 cDNA is isolated from its holding vector, pcDNA3.1 TOPO (InVitrogen), by restriction digestion of plasmid DNA with the enzymes BamH1 and Not-1 and is ligated into the inducible expression vector pGene (InVitrogen) digested with the same enzymes. The GeneSwitch™ system (a system where in transgene expression is switched off in the absence of an inducer and switched on in the presence of an inducer) is performed as described in U.S. Pat. Nos. 5,364,791; 5,874,534; and 5,935,934. Ligated DNA is transformed into competent DH5α E. coli host bacterial cells and is plated onto Luria Broth (LB) agar containing Zeocin™ (an antibiotic which allows the selection of cells expressing the sh ble gene which is present on pGene and pSwitch) at 50 μgml^−1. Colonies containing the re-ligated plasmid are identified by restriction analysis. […]
10-14 days post selection, 10 nM Mifepristone (InVitrogen) is added to the culture medium to induce the expression of the receptor. […] Receptor bound antibody is detected by incubation of the cells for 60 min on ice with a goat anti rabbit antibody, conjugated with Alexa 488 fluorescence marker (Molecular Probes). Following two further washes with Sorting Medium, cells are filtered through a […] Filcon™ (BD Biosciences) and then are analysed on a FACS Vantage SE Flow Cytometer fitted with an Automatic Cell Deposition Unit. […]

[2] = molecular target: T2, human H1 receptor (Homo sapiens, UniProt P35367); experiment: Histamine H1 functional antagonist assay: determination of antagonist pA2 (FLIPR); type: cell-based
T2 construct: expressed in transfected cells
Description: 1. Generation of Histamine H1 Cell Line The human H1 receptor is cloned using known procedures described in the literature [Biochem. Biophys. Res. Commun., 201(2):894 (1994)]. Chinese hamster ovary (CHO) cells stably expressing the human H1 receptor are generated according to known procedures described in the literature [Br. J. Pharmacol., 117(6):1071 (1996)].
The histamine H1 receptor expressing CHO cells are seeded into non-coated black-walled clear bottom 96-well tissue culture plates as described above. […]
The plates are then placed into a FLIPR™ (Molecular Devices, UK) to monitor cell fluorescence (λex=488 nm, λEM=540 nm) in the manner described in Sullivan et al., (In: Lambert D G (ed.), Calcium Signaling Protocols, New Jersey: Humana Press, 1999, 125-136) before and after the addition of 50 μl histamine over a concentration range of 1 mM 0.1 nM. […] The antagonist pA2 is calculated using the following standard equation: pA2=log(DR-1)−log [B] where DR=dose ratio, defined as EC50 antagonist-treated/EC50 control and [B]=concentration of antagonist.

T1 sequence (Q9Y5N1 whole entry, species assumed): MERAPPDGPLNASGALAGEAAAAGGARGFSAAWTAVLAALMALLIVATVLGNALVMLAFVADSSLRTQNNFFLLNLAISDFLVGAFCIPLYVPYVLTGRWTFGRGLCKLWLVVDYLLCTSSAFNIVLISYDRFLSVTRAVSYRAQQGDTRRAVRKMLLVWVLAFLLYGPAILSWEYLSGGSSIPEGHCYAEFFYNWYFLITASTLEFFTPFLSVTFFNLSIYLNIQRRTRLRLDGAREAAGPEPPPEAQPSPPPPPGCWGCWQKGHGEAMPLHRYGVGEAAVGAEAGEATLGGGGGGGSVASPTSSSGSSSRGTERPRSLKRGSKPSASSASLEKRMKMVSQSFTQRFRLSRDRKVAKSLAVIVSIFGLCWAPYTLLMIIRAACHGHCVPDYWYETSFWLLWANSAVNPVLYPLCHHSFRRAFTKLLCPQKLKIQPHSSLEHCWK
T2 sequence (P35367 whole entry): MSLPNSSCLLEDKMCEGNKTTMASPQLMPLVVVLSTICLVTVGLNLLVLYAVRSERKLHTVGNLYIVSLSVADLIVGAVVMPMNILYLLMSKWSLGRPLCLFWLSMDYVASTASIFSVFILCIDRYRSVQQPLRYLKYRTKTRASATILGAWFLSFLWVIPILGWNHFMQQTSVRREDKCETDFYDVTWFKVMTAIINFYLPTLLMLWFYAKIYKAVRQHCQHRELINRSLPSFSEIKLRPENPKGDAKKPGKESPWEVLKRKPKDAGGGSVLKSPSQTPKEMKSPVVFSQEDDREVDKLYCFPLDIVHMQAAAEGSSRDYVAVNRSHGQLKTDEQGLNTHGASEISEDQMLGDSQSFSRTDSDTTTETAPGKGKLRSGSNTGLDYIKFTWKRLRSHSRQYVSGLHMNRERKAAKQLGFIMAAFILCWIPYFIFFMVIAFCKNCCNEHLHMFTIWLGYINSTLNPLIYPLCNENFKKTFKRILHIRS

Cl.O=C(CC(F)(F)F)NCCN1CCC[C@@H]1Cn1nc(Cc2ccc(Cl)cc2)c2ccccc2c1=O [Example 36a, N-[2-((2R)-2-{[4-[(4-Chlorophenyl)methyl]-1-oxo-2(1H)-phthalazinyl]methyl}-1-pyrrolidinyl)ethyl]-3,3,3-trifluoropropanamide, hydrochloride]
Ki [1]: > 316 nM | Kb [2]: < 10 nM

COCCC(=O)NCCN1CCC[C@@H]1Cn1nc(Cc2ccc(Cl)cc2)c2ccccc2c1=O.O=CO [Example 35, N-[2-((2R)-2-{[4-[(4-Chlorophenyl)methyl]-1-oxo-2(1H)-phthalazinyl]methyl}-1-pyrrolidinyl)ethyl]-3-(methyloxy)propanamide, formate salt]
Ki [1]: > 316 nM | Kb [2]: < 10 nM
